Entries after “also recorded” stand apart in the source; their conditions may differ. Like-named read-outs stand apart in the source and are kept apart here.
Key:
[1] = test system: NFAT transcriptional activity in NFAT-transfected HeLa cells; assay: NFAT luciferase reporter assay; assay type: cell-based; settings: stimulated with TPA and ionomycin (FIGS. 16-20)
Experimental: To assay for NFAT luciferase activity, 30 000 HeLa cells were plated per well in 24-well plates, and transfected with 50 ng GFP-NFAT plasmid (Addgene plasmid #24219, gift of Jerry Crabtree (Beals C R, Clipstone N A, Ho S N, Crabtree G R. Nuclear localization of NF-ATc by a calcineurin-dependent, cyclosporin-sensitive intramolecular interaction. Genes Dev 1997 Apr. 1; 11(7):824-34)), 50 ng NFAT-luciferase (Addgene plasmid #10959, gift of Toren Finkel (Ichida M, Finkel T. Ras regulates NFAT3 activity in cardiac myocytes. J Biol Chem 2001 Feb. 2; 276(5):3524-30)), and 5 ng pRL-TK, using 0.4 μl Genecellin™ Transfection Reagent (Celtic Molecular Diagnostics, South Africa). The NFAT-luciferase reporter plasmid contains three tandem repeats of a 30 bp fragment of the IL-2 promoter known to bind NFAT. The following day cells were treated with 10 or 15 μM Compound A and after an overnight incubation, stimulated with 100 nM TPA (Sigma) and 1.3 μM Ionomycin (Santa Cruz Biotechnology, Santa Cruz, Calif., USA) for 5 hours, following which luciferase activity was measured.
An assay for nuclear NFAT following ionomycin and Compound A treatment was carried out, using an NFAT-luciferase reporter that is activated by nuclear NFAT. The phorbol ester TPA was used to co-stimulate NFAT, as it has been shown previously that TPA and ionomycin elicit synergistic stimulation of NFAT luciferase activity (Northrop J P, Ullman K S, Crabtree G R. Characterization of the nuclear and cytoplasmic components of the lymphoid-specific nuclear factor of activated T cells (NF-AT) complex. J Biol Chem 1993 Feb. 5; 268(4):2917-23).

Solubility = assay type: physicochemical; settings: in dimethylsulfoxide (DMSO)
[2] = test system: non-cancer fibroblast cells; assay: MTT cell viability, summary statement for non-cancer cells; assay type: cell-based
Experimental: (§1) Cells were plated in 96-well plates and treated with varying concentrations of a test compound for 48 hours, after which MTT dye, 3-(4,5-dimethylthiazol-2-yl)-2,5-diphenyltetrazolium bromide (Sigma), was added, and crystals solubilised 4 hours later using Solubilisation Reagent (10% SLS in 0.01 M HCl). Absorbencies were measured at 595 nm the following day using a BioTek microplate spectrophotometer (Winooski, Vt., USA) and IC50 curves were generated using GraphPad Prism.

[3] = test system: PARP cleavage in CaSki cells; assay: PARP cleavage analysis by Western Blot; assay type: cell-based; settings: IC50 and twice the IC50 (FIG. 5), varying concentrations 12 hours (FIG. 26)
Experimental: CaSki cells were treated with varying concentrations of Compound A for 12 hours, following which cells and cell floaters were harvested using RIPA buffer (10 mM Tris-Cl, pH 7.4, 150 mM NaCl, 1% sodium deoxycholate, 0.1% SDS, 1% Triton X-100, 1× complete protease inhibitor cocktail (Roche, Mannheim, Germany)) and Western Blot analysis performed, using a rabbit anti-Parp1/2 (H-250) antibody (sc-7150).

[4] = test system: CaSki, HeLa, KYSE30 and WHCO6 cancer cells; assay: Cell proliferation assay (MTT), cancer cells; assay type: cell-based
Experimental: To assay for cell proliferation after Compound A treatment, 5000 cells/well were plated in 96-well plates and treated with 5, 10 or 15 μM Compound A, after which cell proliferation was monitored every 24 hours for four days, using MTT.
This effect was sustained for the full 5 day time period, confirming that there was no population of cells that recovered from the treatment.

[5] = test system: A2780 ovarian cancer cell line; assay: MTT assay for cell viability, IC50 determination; assay type: cell-based; settings: Homo sapiens, 48 hours
Experimental: as §1

[6] = test system: CaSki cervical cancer cell line; assay: MTT assay for cell viability, IC50 determination; assay type: cell-based; settings: MTT, read-out: IC50
Experimental: as §1

[7] = test system: FG0 normal skin fibroblasts (non-cancer); assay: MTT assay for cell viability, IC50 determination; assay type: cell-based; settings: Skin fibroblast, 48 hours
Experimental: as §1

[8] = test system: KYSE180 oesophageal cancer cell line; assay: MTT assay for cell viability, IC50 determination; assay type: cell-based; settings: Homo sapiens, KYSE-180, 48 hours
Experimental: as §1

[9] = test system: CP70 ovarian cancer cell line; assay: MTT assay for cell viability, IC50 determination; assay type: cell-based; settings: 48 hours
Experimental: as §1

[10] = test system: HeLa cervical cancer cell line; assay: MTT assay for cell viability, IC50 determination; assay type: cell-based; settings: HeLa, 48 hours, MTT, read-out: IC50
Experimental: as §1

[11] = test system: DMB normal skin fibroblasts (non-cancer); assay: MTT assay for cell viability, IC50 determination; assay type: cell-based; settings: Skin fibroblast; DMB non-cancer; 48 hours, MTT
Experimental: as §1

WHCO6 tumours = assay: Xenograft tumour model; assay type: in vivo; settings: female nude mice, 50 mg/kg i.p. every 2-3 days for 3 weeks (FIG. 28)
Experimental: WHCO6 cells were harvested and resuspended in PBS. For tumour inoculation, cancer cells (5×10^6 per mouse) were s.c. implanted into the hind flanks of female nude mice. Once tumours had reached a palpable size, drug treatment was initiated, where tumour-bearing mice were randomized and dosed i.p. with either vehicle (DMSO) or Compound A (50 mg/kg), every 2-3 days for 3 weeks. Tumour volumes were measured twice a week, using calipers, and tumour volume estimated using the following formula: volume=(length×width×width)/2. Mice were sacrificed 3 weeks after the commencement of drug treatment.

[12] = test system: GFP-Kpnα2 localisation in CaSki cells; assay: GFP-Kpnα2 nuclear translocation, fluorescence microscopy; assay type: cell-based; settings: 10 μM
Experimental: For controls, equivalent volumes of DMSO were used. Cells were fixed with 4% paraformaldehyde prior to fluorescence microscopy and cell nuclei were stained with 0.5 μg/ml DAPI. Due to fluorescence emitted by Compound A in the GFP channel, the Compound A signal had to be excluded from the GFP signal by separating the emission spectra. A Zeiss LSM 510 Meta confocal microscope was used and images captured using the ZEN 2009 camera with associated AxioVision software (version 4.7). Pictures were edited using the Zeiss image browser. For quantification, 100 cells from each condition were analysed using Image J.
Compound A with cell-killing ability was tested for its ability to block nuclear import using a fluorescence-based screening assay. The assay was based on the fact that Kpnα enters the nucleus in a complex with Kpnβ1. Kpnα2 (Impα1 or Rch1) was GFP-tagged (FIG. 8) and its localisation monitored after treatment with the various compounds, via fluorescence microscopy. […] It was noted that Compound A fluoresced itself, and thus the compound fluorescence signal had to be excluded from the GFP-Kpnα2 signal by separating the emission spectra.

solubility (Solubility): soluble | IC50 [5]: 5.79 µM | IC50 ([6]; 48 hours): 9.33 µM | IC50 ([6]; Homo sapiens, Ca-Ski, 48 h): 9.33 µM | IC50 [8]: 15.8 µM | IC50 [9]: 7.7 µM | IC50 [10]: 8.77 µM | IC50 ([10]; Homo sapiens, 48 h): 10.2 µM
Compound: CN(C)CCCn1c(N)c(-c2nc3ccccc3[nH]2)c2nc3ccccc3nc21 [Compound A, 3-(1H-benzimidazol-2-yl)-1-(3-dimethylaminopropyl)pyrrolo[5,4-b]quinoxalin-2-amine]
NFAT activation (NFAT-luciferase reporter) [1]: significantly diminished NFAT activation | IC50 [2]: 20 to 30 µM | PARP cleavage as an indicator of apoptosis [3]: induce cancer cell death via apoptosis; also recorded: increase in the levels of the 89 kDa cleaved PARP | cell death ([4]; 10 μM (FIG. 22)): 100% | cell death in proliferation assay ([4]; 10 and 15 μM, within 24 hour (FIG. 21 A-D)): complete cell death | IC50 [7]: 21.4 µM | IC50 [11]: 31.4 µM | tumour growth (normalised tumour volume) (WHCO6 tumours): significantly inhibits tumour growth | number of cells containing cytoplasmic GFP-Kpnα2 ([12]; 24 hours (FIG. 9)): significant increase | GFP-Kpnα2 nuclear fluorescence signal ([12]; 24 hours (FIG. 10)): significant decrease
